Assay [1] deals with NMDAR. Put plainly: Homologous binding experiments with MK-801. The settings on record: rat forebrain. Here is the method:
Rat forebrains from 7-8 week old Sprague-Dawley rats (BioChemed, USA) were homogenized in a buffer containing 10 mM HEPES and 1 mM EDTA (pH 7.4) using a mechanical homogenizer (Janke-Kunkel Ultra-Turrax T25). A 10 mL volume was used per brain for all steps involving suspension of the brain homogenate tissue. The brain homogenate was then centrifuged (15 minutes at 20,000 RPM and 4 ° C). The supernatant was carefully poured off and the pellet was resuspended in fresh 10 mM HEPES and 1 mM EDTA containing buffer. This process was repeated 5 times. Following the 5th centrifugation, the buffer was replaced with a buffer containing 10 mM HEPES (pH 7.4). […] Protein concentration of the homogenate was determined by utilizing the Bradford method using Coomassie protein assay reagent (Sigma, USA) with Bovine Serum albumin (Sigma, USA) as a standard.
At the time of the experiment, the homogenate was diluted to a final concentration of […] in 10 mM HEPES buffer, 1 mM glutamate, and 0.1 mM glycine (pH 7.4) and combined with 1 nM (+)-[3H]-MK-801 (Perkin Elmer NET972250UC), unlabeled competitor compounds at varying concentrations, or 30 uM MK-801 to determine non-specific binding, in a total volume of 1 mL in a 96 well plate. […] IC50 value estimates were determined in GraphPad Prism 9.3.1 using non-linear regression (single site fit) with log-concentration plotted against percent specific binding. […]

In a further assay the target is T1, hSERT (Homo sapiens, UniProt P31645).
T1 construct: no vendor name is printed for this cell line) RBHSTM-K; host or cells: HEK293
Put plainly: SERT [3H]-citalopram competition radioligand binding, hSERT expressing HEK293 cell membranes. Here is the method: Valiscreen Serotonin Transporter (SERT) (Human) Cell Line (HEK293 host cells, Product No: RBHSTM-K) grown in DMEM/F12 media with 10% FBS, 0.1 mg/ml Geneticin, 1% GlutaMAX, and 1% Penicillin-Streptomycin added were used to prepare SERT membrane fractions. Cells were grown in 150 mm dishes and harvested between 70-90% confluency, passages 5-20. Cells were detached using a buffer containing 1 mM HEPES and 2 mM EDTA (pH 7.4). After detachment, the cells were homogenized using a handheld homogenizer, and the lysate was centrifuged (30 minutes at 30,000×G) at 4 ° C The resulting pellet was resuspended in storage buffer containing 20 mM HEPES, 10 mM MgCl2, 0.1 mM EDTA, and 10% sucrose at pH 7.4. Protein concentration was determined via the Bradford method using Coomassie protein assay reagent (Sigma, USA) with Bovine Serum albumin (Sigma, USA) as standard.
Buffer containing 10 mM HEPES, 120 mM NaCl, and 5 mM KCl (pH 7.4) was added to SERT membranes to dilute to a final protein concentration of 5 µg/mL per well. Additionally, 0.5 nM [3H]-Citalopram (Perkin Elmer NET1039250UC) was added, along with unlabeled competitors at various concentrations or […] citalopram for nonspecific binding controls, bringing the total volume to 1 ml in a 96 well plate. SERT membranes were always added last to each well. The plates were covered from light with aluminum foil and incubated at ambient temperature ([…]) and placed on a mechanical shaker (250RPM) for 2 h. After 2 h, SERT protein was captured via vacuum filtration using a Unifilter-96 Cell Harvester (Perkin Elmer) over presoaked UniFilter-96 GF/C P Microplates (Perkin Elmer) and filters were washed with room temperature 10 mM HEPES, 120 mM NaCl, and 5 mM KCl buffer (pH 7.4) (3×1 mL). The filter plates were dried overnight in a fume hood. The next day, the SERT bound tritium was measured via liquid scintillation counting with MicroScint-O (Perkin Elmer), using a MicroBeta2 Plate Reader with 6-detectors scintillation counter (Perkin Elmer) at 55% efficiency. IC50 value estimates were determined in GraphPad Prism 9.3.1 using non-linear regression (single site fit) with log-concentration plotted against percent specific binding. […] For each experiments compounds were run in duplicate. N=1-3 repeats per compound.

For assay [2], the target named is T2, human Dopamine Transporter (Homo sapiens, UniProt Q01959).
T2 construct: host or cells: CHO
Put plainly: Human dopamine reuptake transporter (DAT) inhibition functional study, ASP+ uptake in CHO cells. The conditions noted are these: at 10,000 nM, 10 μM ASP+, 1 h, CHO cells stably expressing human DAT. Format: cell-based. Here is the method: CHO cells stably expressing human Dopamine Transporter Protein (Valiscreen® Perkin Elmer RBHDATM-K) were cultured in 150 mm Tissue Culture dishes (Cell Treat 229651) at 37 ° C and 5% CO2. Ham's F-12 Nutrient Mix (Gibco, USA) was supplemented with 10% dialyzed FBS (Gibco, USA), 100 µg/ml Geneticin (Gibco, USA), and 100 units/ml Penicillin and Streptomycin (Gibco, USA) as the culture media. Cells were maintained on a consistent splitting and assay schedule and utilized until passage 30 (no change in control experiments were observed up to this point).
Cells were detached from their growth dishes using Trypsin-EDTA (0.25%) (Gibco, USA) at 70-80% confluency. The cells were counted and diluted in culture media to a density of 300,000 cells/mL. 200 µl of this mixture was added to each well of a clear bottom, black-walled 96 well plate (Coming 3603, USA). Plates were incubated in the laminar flow hood for one hour prior to being placed in the cell culture incubator in order to encourage even cell distribution across the entire well surface.
The next day, Krebs-Ringer HEPES (KRH) Buffer pH 7.4 was prepared (10 mM HEPES, 130 mM NaCl, 1.3 mM KCl, 2.2 mM CaCl2, 1.2 mM MgSO4, 1.2 mM KH2PO4) and titrated with 6N NaOH. This buffer was stored in a 4 ° C refrigerator for up to 4 days (after which it was discarded). Additionally, a solution containing KRH buffer and 330 µM Trypan Blue (Sigma T6146-25G), a solution of 20 mM ASP+(MedChem Express, NJ, USA) dissolved in DMSO, were both prepared. The 20 mM DMSO stock of ASP+ was diluted to a working concentration of 40 µM in KRH buffer. DMSO solutions of 40 mM GBR-12935 dihydrochloride (MedChem Express, NJ, USA) and 40 mM test compounds were also prepared. DMSO solutions of test compounds were then diluted to a range of […]-40 μM in KRH Buffer with 1% additional DMSO added to provide consistent DMSO concentration in all samples. […] The final DMSO concentration in each well was 0.3%. […] KRH buffer with DMSO “vehicle control” served as the total fluorescence control to represent the maximum amount of substrate uptake without DAT transporter inhibition.
At the time of assay, cell media was carefully removed from the wells via pipette aspiration. 100 μL of KRH buffer was then added to all wells. Both controls, non-specific and total fluorescence stock solutions were then added to the plate (50 µL of either 400 µM GBR-12935 or KRH DMSO buffer respectively). Additionally, GBR-12935 and test compounds were added to the plate ([…] for each sample). The 10,000 nM concentration of test compound was run in triplicate wells. Next, […] ASP+(final concentration of 10 μM) was added to each well initiating the experiment. Cells were placed in the cell culture incubator for one hour, at which point 20 µL of 330 µM Trypan Blue was added to each well to quench extracellular fluorescence. The cells were then placed in the microplate reader (BioTek Synergy Neo 2), using Gen5 Ver 3.11 software. The reader was preheated to 37 ° C and following a brief orbital shake, intracellular fluorescence was measured using a fluorescence intensity reading. Intracellular ASP+ was excited at 430 nm and emission read at 510 nm via a bottom read using the extended gain settings and high lamp energy setting.

The target in assay [3] is NMDAR. Put plainly: NMDA receptor [3H]-MK-801 competition radioligand binding in rat forebrain. The settings on record: [3H]-MK-801 1 nM competition, 1 mM glutamate, 0.1 mM glycine, pH 7.4, 2 h ambient, N = 1-4. Here is the method: Rat forebrains from 7-8 week old Sprague-Dawley rats (BioChemed, USA) were homogenized in a buffer containing 10 mM HEPES and 1 mM EDTA (pH 7.4) using a mechanical homogenizer (Janke-Kunkel Ultra-Turrax T25). A 10 mL volume was used per brain for all steps involving suspension of the brain homogenate tissue. The brain homogenate was then centrifuged (15 minutes at 20,000 RPM and 4 ° C). The supernatant was carefully poured off and the pellet was resuspended in fresh 10 mM HEPES and 1 mM EDTA containing buffer. This process was repeated 5 times. Following the 5th centrifugation, the buffer was replaced with a buffer containing 10 mM HEPES (pH 7.4). The homogenate was then incubated in a water bath at 37 ° C in the dark (covered with foil). Centrifugation was then repeated 3 additional times and after resuspending in the HEPES buffer, the final homogenate was aliquoted and stored at −80 ° C until use. Protein concentration of the homogenate was determined by utilizing the Bradford method using Coomassie protein assay reagent (Sigma, USA) with Bovine Serum albumin (Sigma, USA) as a standard.
At the time of the experiment, the homogenate was diluted to a final concentration of […] in 10 mM HEPES buffer, 1 mM glutamate, and 0.1 mM glycine (pH 7.4) and combined with 1 nM (+)-[3H]-MK-801 (Perkin Elmer NET972250UC), unlabeled competitor compounds at varying concentrations, or 30 uM MK-801 to determine non-specific binding, in a total volume of 1 mL in a 96 well plate. The protein homogenate is always added to the wells last. The plates were covered with aluminum foil, and placed on a mechanical shaker (250 RPM) for 2 h at ambient temperature ([…]). After 2 h, the homogenate was collected by vacuum filtration using a Unifilter-96 Cell Harvester (Perkin Elmer) over presoaked UniFilter-96 GF/C P Microplates (Perkin Elmer) and filters were washed with room temperature 10 mM HEPES buffer (pH 7.4) (3×1 mL). The filter plates were dried overnight in a fume hood. The next day, the bound tritium was measured via liquid scintillation counting with […] MicroScint-O (Perkin Elmer) added per well, using a MicroBeta2 Plate Reader with 6-detectors scintillation counter (Perkin Elmer) at 55% efficiency. IC50 value estimates were determined in GraphPad Prism 9.3.1 using non-linear regression (single site fit) with log-concentration plotted against percent specific binding. Ki values were calculated using the equation of Cheng and Prusoff. […] Experiments were performed in duplicate. N=1-4 per compound.

Structures are written as SMILES.

We go through 3 molecules from patent US20260347330A1, “N-METHYL-D-ASPARTATE RECEPTOR (NMDAR) ANTAGONISTS AND USES THEREOF” (Bexson Biomedical, Inc., priority 2022, published 2026).

T1 sequence (P31645 whole entry): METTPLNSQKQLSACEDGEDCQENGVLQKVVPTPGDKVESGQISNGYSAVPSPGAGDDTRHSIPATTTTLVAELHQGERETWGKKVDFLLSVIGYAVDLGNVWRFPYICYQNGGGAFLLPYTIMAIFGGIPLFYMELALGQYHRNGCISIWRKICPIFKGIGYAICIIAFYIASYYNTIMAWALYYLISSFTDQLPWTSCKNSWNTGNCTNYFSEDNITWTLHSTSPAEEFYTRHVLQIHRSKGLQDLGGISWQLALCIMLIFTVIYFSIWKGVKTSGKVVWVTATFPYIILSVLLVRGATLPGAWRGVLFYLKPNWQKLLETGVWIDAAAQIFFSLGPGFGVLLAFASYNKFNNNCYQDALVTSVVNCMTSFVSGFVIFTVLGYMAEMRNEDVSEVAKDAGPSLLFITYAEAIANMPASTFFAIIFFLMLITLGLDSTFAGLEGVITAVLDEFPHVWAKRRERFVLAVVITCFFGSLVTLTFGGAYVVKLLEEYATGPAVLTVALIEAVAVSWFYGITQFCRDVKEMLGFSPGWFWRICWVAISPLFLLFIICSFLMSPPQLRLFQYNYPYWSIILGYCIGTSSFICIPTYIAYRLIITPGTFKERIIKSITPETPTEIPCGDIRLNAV
T2 sequence (Q01959 whole entry): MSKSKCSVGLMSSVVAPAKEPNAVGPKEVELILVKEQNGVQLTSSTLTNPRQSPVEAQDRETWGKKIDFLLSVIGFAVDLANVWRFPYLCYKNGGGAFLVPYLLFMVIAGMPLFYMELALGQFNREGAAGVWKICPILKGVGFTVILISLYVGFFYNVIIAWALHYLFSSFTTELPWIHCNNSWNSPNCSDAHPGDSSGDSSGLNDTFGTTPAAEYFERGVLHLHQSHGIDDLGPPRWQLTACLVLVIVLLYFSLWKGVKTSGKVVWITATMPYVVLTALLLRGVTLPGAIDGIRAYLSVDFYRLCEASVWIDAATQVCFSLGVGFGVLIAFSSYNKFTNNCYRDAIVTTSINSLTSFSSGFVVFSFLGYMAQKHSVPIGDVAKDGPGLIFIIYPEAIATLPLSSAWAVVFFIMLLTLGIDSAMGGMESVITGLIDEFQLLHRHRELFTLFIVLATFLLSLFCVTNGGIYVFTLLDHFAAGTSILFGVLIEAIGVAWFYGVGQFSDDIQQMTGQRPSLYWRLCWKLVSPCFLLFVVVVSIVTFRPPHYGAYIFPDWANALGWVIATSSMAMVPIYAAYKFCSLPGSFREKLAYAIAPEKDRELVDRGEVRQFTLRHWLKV

For `C[C@]12N[C@H](Cc3ccccc31)c1ccccc12` [MK-801], binding at NMDAR [1] was put at a Kd of 1.67 nM.
At hSERT, `CC(N)(c1ccccc1)C1CCCC1` (stereo not shown) [Compound 3, 1-cyclopentyl-1-phenylethan-1-amine] registered a concentration for half-maximal inhibition (IC50) above 10000 nM. The inhibition at 10 µM in assay [2] is 16.8%. Further, at NMDAR [3], the “NMDAR binding affinity pKi (mean ± SEM)” value stood at 7.11 ± 0.041.
As for `CC(C)NC(C)(c1ccccc1)C1CCCC1` (stereo not shown) [Compound 19, N-(1-cyclopentyl-1-phenylethyl)propan-2-amine], the Ki at hSERT (0.5 nM [3H]-citalopram competition, hSERT HEK293 membranes, pH 7.4, 2 h ambient, N = 1, read-out: SERT pKi (converted)) was 151 nM. The inhibition at 10 µM in assay [2] was 39.2%. Also, the “NMDAR binding affinity pKi (mean ± SEM)” value at NMDAR [3] is given as 7.34 ± 0.041.
